From paper PMC7555970, “Design, Synthesis and Biological Evaluation of Biphenylglyoxamide-Based Small Molecular Antimicrobial Peptide Mimics as Antibacterial Agents” (International Journal of Molecular Sciences, 2020)
In brackets after ≈: the same amount, converted by molar mass. Where two headings read alike, the source gives them in different places.

Columns and labels:
[1] = test system: established S. aureus biofilms; set-up: method as in PMID 27405275; details: 4× its MIC (32 μM) ref 52; cited from earlier work
[2] = Tethered bilayer lipid membranes (tBLMs) assay, negatively charged membrane
Protocol: (§1) Changes in membrane conduction and capacitance were measured using tethered bilayer lipid membranes (tBLMs) in association with AC electrical impedance spectroscopy techniques. Sparsely tethered tBLMs were prepared using a zwitterionic 1-palmitoyl-2-oleoyl-glycero-3-phosphocholine (POPC) (Avanti Lipids, USA) or a mixture of 30% palmitoyl-oleoyl-phosphatidylglycerol (POPG) (Avanti Lipids, USA) lipids with 70% POPC in order to create a negatively charged tBLM [66, 67]. To do this, gold-patterned polycarbonate slides were coated with tethered benzyl-disulfide (tetra-ethyleneglycol) n = 2 C20-phytanyl tethers:benzyl-disulfide-tetra-ethyleneglycol-OH spacers in the ratio of 1:10 (SDx Tethered Membranes Pty Ltd., Australia). A 3 mM solution of a mobile lipid phase POPC, or a 3 mM solution of mobile phase POPC/POPG (70:30), (Avanti Lipids, USA) in 100% ethanol was then incubated with the tethering chemistries. Lipids were left to incubate with the tethering chemistries for 2 min before being washed with 3 × […] of phosphate-buffered saline (PBS). Prior to the addition of the compounds, membrane stability was confirmed by 5 × 100 µL washes of the PBS vehicle. AC electrical impedance spectrometry (EIS) was then used to monitor any changes in membrane impedances as a result of adding the test compounds in increasing concentrations.
(§2) For EIS measures, a 50 mV peak-to-peak AC excitation from 0.1 to 2000 Hz with four steps per decade were recorded using a TethaPod™ operated with TethaQuick™ software (SDx Tethered Membranes Pty Ltd., Australia). The data were fitted to an equivalent circuit consisting of a Constant Phase Element (CPE), to represent the imperfect capacitance of the gold tethering electrode, in series with a Resistor/Capacitor network to represent the lipid bilayer membrane. Fitting of the phase and impedance data to the equivalent circuit was completed with a proprietary adaptation of a Lev Mar fitting routine. To account for variations in basal membrane conditions, data are normalised to a baseline conduction and capacitance values directly before the addition of each compound.

S. aureus (SA38) [3] = assay: Minimum inhibitory concentration (MIC) assay against S. aureus; assay type: cell-based, Staphylococcus aureus; details: Staphylococcus aureus
Protocol: (§3) The antimicrobial activity of the compounds was evaluated by MIC assay using the procedure described by Clinical and Laboratory Standards Institute (CLSI). A single colony of bacteria was cultured overnight in trypticase soy broth (TSB; Oxoid, Basingstoke, UK) at 37 °C with shaking. The resulting bacterial culture was collected by centrifugation and resuspended in TSB twice. The optical density (OD) of the resulting culture was adjusted to OD660 = 0.1 in TSB (which is equivalent to 10^8 colony forming unit (CFU)/mL bacteria). It was further diluted to 10^6 CFU/mL in TSB. 100 µL of the bacterial solution was then added to wells of a 96-well plate (Costar; Sigma-Aldrich, St Louis, MO, USA) containing 100 µL serially diluted peptide mimic, with final concentration ranging from 1 to 250 µM. Wells with bacteria but no compound were used as negative control while wells with only media were set as blank. The plates were then wrapped with parafilm to prevent evaporation and incubated with shaking at 120 rpm at 37 °C for 18–24 h, and the data were recorded by measuring the OD value at 660 nm using a FLUOstar Omega (BMG Labtech, Mornington, Victoria, Australia) microplate reader. […] Each experiment was performed in triplicate and was repeated in three independent experiments.

[4] = Tethered bilayer lipid membranes (tBLMs) assay, zwitterionic membrane
Protocol: as §1, §2

[5] = test system: established S. aureus biofilms; assay: Biofilm disruption assay (crystal violet staining), S. aureus; assay type: cell-based, Staphylococcus aureus; details: 4× MIC (32 μM), 24 h treatment
Protocol: (§4) Bacterial cultures (S. aureus and E. coli) were grown in Muller Hinton broth (MHB; Oxoid, Basingstoke, UK) media overnight at 37 °C with shaking at 120 rpm. Cultures were diluted (1:20) in MHB medium and 200 µL aliquots were dispensed to wells in a flat bottom 96-well plate (Costar; Sigma-Aldrich, St Louis, MO, USA). Biofilm was then grown in the 96-well plate at 37 °C overnight. After that, loosely bound cells were washed away with 1x phosphate-buffered saline (PBS) and cultures were then supplemented with different concentrations of test compounds dissolved in DMSO and incubated for a further 24 h with shaking at 120 rpm. Biofilms adhered on the plate substratum were quantified using crystal violet staining as described previously. The experiment was performed in triplicate.

S. aureus = assay: Time-kill kinetic / cell viability count assay; assay type: cell-based, Staphylococcus aureus
Protocol: The number of viable cells was confirmed by serially diluting aliquots of bacteria in D/E neutralizing broth (Remel, Lenexa, KS, USA) and plating onto Tryptic Soy Agar (Oxoid, Basingstoke, UK) containing phosphatidylcholine (0.7 g/L) and Tween 80 (5 mL/L). The plates were incubated at 37 °C overnight and numbers of live bacteria were enumerated and expressed as CFU/mL. The experiment was performed in triplicate.

[6] = test system: MRC-5 normal human lung fibroblasts; assay: MTT toxicity assay; assay type: cell-based; details: Homo sapiens, MRC5, 72 h, 72 h drug incubation, read-out: IC50 against MRC-5 normal human lung fibroblasts
Protocol: The toxicity of the compounds was measured using an MTT (3-(4,5-dimethylthiazol-2-yl)-2,5-diphenyltetrazolium bromide) (Sigma Aldrich, St Louis, MO, USA) colorimetric assay against normal human lung fibroblasts MRC-5 cells. The cells were cultured in minimal essential medium (MEM; Sigma Aldrich, St Louis, MO, USA) containing 10% foetal bovine serum (FBS). The cells were maintained at 37 °C in 5% CO2 as an adherent monolayer and was passaged upon reaching confluence by standard cell culture techniques. MRC-5 cells were seeded at 5000 cells/well in 96-well plates to ensure full confluence (quiescence) and left overnight to adhere to the plate wells. The adherent cells were treated with 1–500 µM of compounds by dissolving in DMSO and serially diluting with media. The final concentration of DMSO was 0.5% (v/v). After 72 h drug incubation, […] stock MTT solution (5 mg/mL) was added and the cells were incubated for another 3.5–4 h. MTT solution-containing media was carefully aspirated without displacing the purple crystals from the bottom and […] acid-isopropanol was added to all wells and mixed slowly by shaking with an orbital shaker to dissolve the dark blue crystals. The metabolic activity was detected by spectrophotometric analysis by assessing the read absorbance (590/620 nm) on an EnSight plate reader (PerkinElmer, Waltham, MA, USA) and cell viability was expressed as a percentage of untreated control cells. The determination of IC50 values was performed using GraphPad Prism 6 (GraphPad, San Diego, CA, USA). Each experiment was performed in triplicate and was repeated in three independent experiments.

E. coli (K12) [7] = assay: Minimum inhibitory concentration (MIC) assay against E. coli; assay type: cell-based; details: Escherichia coli
Protocol: as §3

[8] = test system: cytoplasmic membrane of S. aureus; assay: Cytoplasmic membrane permeability (diSC3-5 dye release) assay; assay type: cell-based, Staphylococcus aureus; details: 1× and 2× MIC
Protocol: Bacterial cytoplasmic membrane permeability was determined using membrane potential-sensitive dye diSC3–5 (3,3′-dipropylthiadicarbocyanine iodide), which penetrates inside bacterial cells depending on the membrane potential gradient of the cytoplasmic membrane. The procedure of this assay follows the method previously described by Wu et al. with slight modifications. Bacteria were grown in MHB to mid-log phase by incubating with shaking at 37 °C for […]. Following incubation, bacteria were washed with 5 mM HEPES containing 20 mM glucose at pH 7.2 and resuspended in the same buffer to an OD600 0.05–0.06 (yielding a final concentration of 10^7 CFU/mL). The dye diSC3–5 was added at 4 μM to the bacterial suspension. The suspensions were incubated at room temperature for 1 h in darkness for maximum dye take-up by the bacterial cells. 100 mM KCl was then added to balance the K^+ outside and inside the bacterial cell. 100 μL of bacterial suspension was added in a 96-well microtiter plate and with equal volume of antimicrobial compounds. DMSO (10%) was set as a positive control while dye and only bacterial cells were set as negative control. Fluorescence due to release of dye was measured with a luminescence spectrophotometer at 3 min intervals at an excitation wavelength of 621 nm and an emission wavelength of 670 nm.

[9] = test system: preformed E. coli biofilm; assay: Biofilm disruption assay (crystal violet staining), E. coli; assay type: cell-based, Escherichia coli; details: 4× MIC (64 μM), 24 h treatment
Protocol: as §4

P. aeruginosa (PA01) [10] = assay: Minimum inhibitory concentration (MIC) assay against P. aeruginosa; assay type: cell-based; details: Pseudomonas aeruginosa
Protocol: as §3

Gram-negative bacteria = test system: Gram-negative bacteria; set-up: method as in doi:10.1002/slct.201700336, PMID 28203673; details: previously reported ref 43, 44; cited from earlier work
E. coli (K12) [11] = details: no antibacterial activity at the highest concentration tested (250 μM) ref 43; cited from earlier work
P. aeruginosa (PA01) [12] = details: no antibacterial activity at the highest concentration tested (250 μM) ref 43; cited from earlier work
S. aureus (SA38) [13] = details: cited from earlier work

LL-37: a natural antimicrobial peptide that is being tested in phase II clinical trials (LLGDFFRKSKEKIGKEFKRIVQRIKDFLRNLVPRTES; Antibacterial peptide LL-37; UniProt P49913 134-170, looked up)
disruption of mature S. aureus biofilms [1]: approximately 40%

CCCCCCCCS(=O)(=O)Nc1ccc(-c2ccc(Cl)cc2)cc1C(=O)C(=O)NCCC[N+](C)(C)C.[I-] [Compound 15c, 3-(2-(4’-Chloro-4-(octylsulfonamido)-[1,1’-biphenyl]-3-yl)-2-oxoacetamido)-N,N,N-trimethylpropan-1-aminium iodide]
changes in membrane conductance ([2]; 30% POPG membranes, concentrations <1 μM): notably absent | changes of membrane conduction ([2]; negatively charged membranes, higher concentrations (1–100 μM), compared to zwitterionic): lower | membrane capacitance ([2]; negatively charged tBLMs, saturating concentrations): large increase | MIC (S. aureus (SA38) [3]): 8 µM | shift in membrane conductance ([4]; zwitterionic POPC tBLMs, concentrations as low as 100 nM): 2.5 × | changes of membrane conduction ([4]; zwitterionic membrane, higher concentrations (1–100 μM)): more pronounced | membrane capacitance ([4]; zwitterionic tBLMs, saturating concentrations): large increase | disruption of preformed S. aureus biofilms [5]: 35% | reduction in bacterial numbers (S. aureus; 1× MIC): 1 log | reduction in bacterial numbers (S. aureus; 2× MIC): 2 log | IC50 [6]: 95.8 µM | MIC (E. coli (K12) [7]): 16 µM | increase in diSC3-5 fluorescence intensity (cytoplasmic membrane disruption) [8]: largest increase in fluorescence intensity | disruption of preformed E. coli biofilm [9]: insignificant amount | MIC (P. aeruginosa (PA01) [10]): 63 µM

CN(C)CCCNC(=O)C(=O)c1cc(-c2ccccc2)ccc1NC(=O)c1ccc2ccccc2c1 [Compound 25, N-(3-(2-((3-(Dimethylamino)propyl)amino)-2-oxoacetyl)-[1,1’-biphenyl]-4-yl)-2-naphthamide]
melting point: 151.6 to 151.8 °C | MIC (S. aureus (SA38) [3]): > 250 µM

CCCCCCCCS(=O)(=O)Nc1ccc(Br)cc1C(=O)C(=O)NCCC[N+](C)(C)C [Compound 4b]
antibacterial activity against Gram-negative bacteria (Gram-negative bacteria): no antibacterial activity | MIC against E. coli (E. coli (K12) [11]): > 250 µM | MIC against P. aeruginosa (P. aeruginosa (PA01) [12]): > 250 µM | MIC against S. aureus (S. aureus (SA38) [13]; previously synthesised N-sulfonylphenylglyoxamide iodide salts ref 43): 63 µM

N=C(N)NCCCNC(=O)C(=O)c1cc(Br)ccc1NC(=O)c1ccc2ccccc2c1 [Compound 5]
antibacterial activity against Gram-negative bacteria (Gram-negative bacteria): no antibacterial activity | MIC against S. aureus (S. aureus (SA38) [13]; previously reported ref 44): 12 µM (≈ 5.96 µg/mL)
